Assay results from patent US20230233736A1, “ANTIMICROBIAL FORMULATIONS COMPRISING SILICONE” (AMICOAT AS, priority 2020, published 2023).

How the values were obtained:
[1] = system: Candida tropicalis; assay: MIC microbroth dilution (CLSI); assay type: cell-based; conditions: ATCC750 - reference strain
[2] = system: Aspergillus niger; assay: MIC microbroth dilution (CLSI); assay type: cell-based; conditions: G.R. Micro collection
[3] = system: Trichophyton mentagrophytes; assay: MIC microbroth dilution (CLSI); assay type: cell-based; conditions: G.R. Micro collection
[4] = system: Trichophyton interdigitale; assay: MIC microbroth dilution (CLSI); assay type: cell-based; conditions: G.R. Micro collection
[5] = system: Microsporum canis; assay: MIC microbroth dilution (CLSI); assay type: cell-based; conditions: G.R. Micro collection
[6] = system: Enterococcus gallinarum; assay: MIC microbroth dilution (CLSI); assay type: cell-based; conditions: vancomycin-resistant (VanC) clinical isolate
Excerpt: (§1) Cation-adjusted Mueller-Hinton broth (Oxoid Ltd., Basingstoke, UK and Trek Diagnostic Systems Ltd., East Grinstead, UK) (supplemented with 5% laked horse blood for Streptococcus spp., Corynebacterium jeikeium and Listeria monocytogenes) was used for aerobic bacteria, with an initial inoculum of approximately 10^5 colony-forming units (CFU)/m L.

[7] = system: Listeria monocytogenes; assay: MIC microbroth dilution (CLSI); assay type: cell-based; conditions: antibiotic-susceptible clinical isolate
Excerpt: as §1

[8] = system: Salmonella sp; assay: MIC microbroth dilution (CLSI); assay type: cell-based
Excerpt: as §1

[9] = system: Shigella sp; assay: MIC microbroth dilution (CLSI); assay type: cell-based; conditions: antibiotic-susceptible clinical isolate
Excerpt: as §1

[10] = system: Staphylococcus saprophyticus; assay: MIC microbroth dilution (CLSI); assay type: cell-based; conditions: antibiotic susceptible clinical isolate
Excerpt: as §1

[11] = system: Stenotrophomonas maltophilia; assay: MIC microbroth dilution (CLSI); assay type: cell-based; conditions: antibiotic-susceptible clinical isolate
Excerpt: as §1

[12] = system: Acinetobacter baumanii; assay: MIC microbroth dilution (CLSI); assay type: cell-based; parameters: unit not given beside the values; conditions: antibiotic-susceptible clinical isolate
Excerpt: as §1

[13] = system: Streptococcus pyogenes; assay type: cell-based; conditions: Macrolide (M-type) resistance clinical isolate
Excerpt: as §1

[14] = system: Clostridium difficile; assay: MIC microbroth dilution (CLSI); assay type: cell-based; parameters: unit not given beside the values; conditions: antibiotic-susceptible clinical isolate
[15] = system: Staphylococcus aureus FDA486; assay: Murine skin infection model, topical treatment; assay type: in vivo, mice; conditions: FIG. 1; cream or gel containing 2% (w/w), three treatments at three hourly intervals, compared to placebo
Protocol: The skin of mice was infected with Staphylococcus aureus or Streptococcus pyogenes and subsequently given a total of three treatments at three hourly intervals. Three hours after the last treatment, skin biopsies were collected and the number of colony forming units (CFUs) present in the skin sample was determined. Results are shown in FIGS. 1 and 2, expressed as the number of colony forming units per mouse.
In experiment 1 (FIG. 1), compound 2 was applied to the murine skin as part of either a cream or a gel containing 2% (w/w) of compound 2. The same cream or gel without compound 2 was used as a negative control (placebo).
The skin of mice was infected with Staphylococcus aureus or Streptococcus pyogenes and subsequently given a total of three treatments at three hourly intervals. Three hours after the last treatment, skin biopsies were collected and the number of colony forming units (CFUs) present in the skin sample was determined. Results are shown in FIGS. 3, 4 and 5 expressed as the number of colony forming units per mouse.
In experiment 1 (FIG. 3), compound 7 was applied to the murine skin as part of either a cream or a gel containing 2% (w/w) of compound 7. The same cream or gel without compound 7 was used as a negative control (placebo). Bactroban 2% cream was used as a positive control.
In experiment 3 (FIG. 5), compound 8 was applied in a 2% cream formulation on a Staphylococcus aureus FDA 486 infection in the murine skin infection model. A placebo cream and two known antibacterials, “Fucidin (fucidic acid) ointment 2%” and “Bactroban (mupericin) cream 2%” were used as controls.

[16] = system: Staphylococcus epidermidis RP62A; assay: CFU on silicone prosthetic liner patches; assay type: cell-based; conditions: washed with water
Protocol: (§2) Bacterial Strains: • Staphylococcus epidermidis RP62A • Staphylococcus hominis 58-69
(§3) Overnight colonies of S. epidermidis or S. hominis were diluted to 0.5 McFarland (1×10^8 CFU/ml) in 0.85% NaCl. The bacterial solution was further diluted in Tryptic Soy Broth media (to 1×10^5 CFU/ml) and drops of 100 μl was applied to the surfaces of the silicone patches. Silicone patches were placed on glass microscope slides, and the glass slides were placed in a moist incubation chamber and incubated for 24 hours at 37° C.
(§4) For determining CFU, the samples were vortexed in 1 ml 0.85% NaCl and serial dilutions (10^−1 to 10^−6) were made. 100 μl aliquots of the serial dilutions were streaked on blood agar plates, and further incubated overnight prior to CFU counting.
(§5) The level of bacterial inhibition was examined by number of CFU and growth zone inhibition. All materials tested were washed with water after completion of the swell and dry procedure to ensure that the activity of the materials was due to internally absorbed AMC-109 only.

[17] = system: Staphylococcus hominis 58-69; assay: CFU on silicone prosthetic liner patches; assay type: cell-based; conditions: washed with water
Protocol: as §2, §3, §4, §5

[18] = system: Staphylococcus epidermidis RP62A; assay: Growth inhibition zones around silicone prosthetic liner; assay type: cell-based
Excerpt: as §2, §5

[19] = system: Staphylococcus hominis 58-69; assay: as above; assay type: cell-based
Excerpt: as §2, §5

[20] = system: Methicillin resistant Staphylococcus aureus (MRSA) strain ATCC 33591; conditions: MRSA ATCC 33591
[21] = system: Methicillin resistant Staphylococcus epidermidis (MRSE) strain ATCC 27626; conditions: MRSE ATCC 27626
[22] = system: S. aureus
[23] = system: S. aureus (ATCC 8325); assay: Modified AATCC 100 method, silicone membrane valves
[24] = system: P. aeruginosa (PAO1); assay: as above; conditions: low loading, original surface (A*)
[25] = system: S. epidermidis (RP62A); assay: as above; conditions: low loading, original surface (A*)

Structure (SMILES): CC(C)(C)c1cc(C(C)(C)C)c2[nH]c(C(C)(C)C)c(CC(NC(=O)C(N)CCCNC(=N)N)C(=O)NC(CCCNC(=N)N)C(=O)NCCc3ccccc3)c2c1 (stereo not drawn) [Compound 2]
- MIC [1]: 4
- MIC [2]: 8
- MIC [3]: 8
- MIC [4]: 8
- MIC [5]: 8
- MIC [6]: 4
- MIC [7]: 16
- MIC ([8]; antibiotic-susceptible clinical isolate): 8
- MIC ([8]; multi-drug resistant clinical isolate): 8
- MIC [9]: 8
- MIC [10]: 1
- MIC [11]: 8
- MIC [12]: 16
- MIC [13]: 16
- MIC [14]: 16
- number of colony forming units (CFU) in skin biopsy [15]: number of CFUs was reduced
- CFU ([16]; 5 minutes swell time): 0 CFU/ml
- CFU ([16]; 15 minutes swell time): 0 CFU/ml
- CFU ([17]; 5 minutes swell time): 0 CFU/ml
- CFU ([17]; 15 minutes swell time): 0 CFU/ml
- growth inhibition zone ([18]; 5 minutes swell time): 3 mm
- growth inhibition zone ([18]; 15 minutes swell time): 3 mm
- growth inhibition zone ([19]; 5 minutes swell time): 4 mm
- growth inhibition zone ([19]; 15 minutes swell time): 2 mm
- MIC [20]: <3 µM
- MIC [21]: <3 µM
- minimum inhibitory concentration (MIC) [22]: 2 to 4 µg/mL
- CFU (samples containing AMC-109) ([23]; High loading, swell concentration 8.3 mg/ml, original surface (A*)): 0
- CFU (samples containing AMC-109) ([23]; Low loading, 1.7 mg/ml, surface created by slicing (B*)): 0
- CFU (samples containing AMC-109) ([23]; Low with washing, 3.1 mg/ml, original surface (A*)): 0
- CFU (samples containing AMC-109) ([23]; Low with washing, 3.1 mg/ml, surface created by slicing (B*)): 0
- CFU (samples containing AMC-109) [24]: 0
- CFU (samples containing AMC-109) [25]: 0
